Drawing on publication PMC4257840 (Journal of Medicinal Chemistry, 2014), this text covers inhibition and IC50 for one compound.

Assay [1] concerns the target T1, Cathepsin C from bovine spleen (Bos taurus, UniProt Q3ZCJ8).
T1 construct: Cathepsin C from bovine spleen was used as the source of; from tissue; host or cells: bovine spleen
Nature of the assay: Protease counter-screening: Cathepsin C. The format is biochemical. The method, then: (§1) Appendix 7. Protease Counter -Screening
(§2) Protease counter-screeni ng was performed using the methods described below. Initial screening was conducted in duplicate using a single test substance concentration of 10 µ M .
(§3) Additional assays were conducted in replicate for selected pairin gs of test s ubstance and enz yme in order to enable the determination of IC50 values using conventional procedures.
(§4) Determination of K i was made using the Batch K i program (Biokin Ltd, Pullman, WA) to derive values from the Morrison equation: […]
(§5) Where [E ] is the active enz yme concentration, Kiapp is the apparent inhibition const ant, v 0 is the control velocit y in the absence of inhibitors, vb is the background velocity, v is the initial reaction velocit y in the presence of inhibitor, and I is the inhibitor concentration.Thence:
(§6) Where [S ] is the substrate concentration and KM is the Michealis constant. […]
by addition of 50 µM Ac-DEVD-AMC for another 60 min incubation period. The amount of AMC formed was determined fluorimetricall y (excitation 360 nm/emission 465 nm). […]
by addition of 25 µM Ac-LEH D-A FC for another 60 min incubation period. The amount of amino-4- trifluorometh ylcoumarin (AFC) formed determined fluorimetrically (400nm/ 510nm).
Cathepsin C: Cathepsin C from bovine spleen was used as the source of enz yme. […] T he amount of AMC product formed was read spectrofluorimetrically
A general note: The purpose of a counterscreen is to sort out artefacts and off-target activity.

In a further assay the target is T2, Human cathepsin E (Homo sapiens, UniProt P14091).
T2 construct: host or cells: NS0 murine myeloma cell line
T2 sequence (P14091 54-396): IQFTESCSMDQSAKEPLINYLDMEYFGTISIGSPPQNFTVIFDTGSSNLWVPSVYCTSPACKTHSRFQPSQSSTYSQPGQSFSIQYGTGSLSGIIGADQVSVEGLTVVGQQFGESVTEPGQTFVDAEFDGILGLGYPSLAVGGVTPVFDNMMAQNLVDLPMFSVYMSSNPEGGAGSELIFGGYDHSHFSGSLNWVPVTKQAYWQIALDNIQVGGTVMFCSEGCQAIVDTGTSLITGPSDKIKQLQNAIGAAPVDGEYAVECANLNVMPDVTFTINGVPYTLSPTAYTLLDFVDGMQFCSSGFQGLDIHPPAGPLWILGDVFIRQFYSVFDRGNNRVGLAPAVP
Nature of the assay: Protease counter-screening: Cathepsin E. Type of assay: biochemical. The method, then:
as §1, §2, §3, §4, §5
(§7) Where [S ] is the substrate concentration and KM is the Michealis constant.
(§8) Caspase 1: Activity against human recombinant caspase 1 expressed in E. coli was tested using Ac-YVAD- AMC as the substrate. Test compound or vehicle was pre- incubated with 600 […]
(§9) Cathep sin D: Tests were performed using enz ym e purified from human li ver. Test compound or vehicle was pre- incubated with 190 mU/mL enz yme in modified acetate buffer pH 4.0 for 15 min at 37 °C. […]
(§10) The amount of MCA-P LG formed was measured spectrofluorimetricall y at 340 nm/400 nm. […]

For assay [2], the target named is T3, Human recombinant dipeptidyl peptidase IV (Homo sapiens, UniProt P27487).
T3 construct: host or cells: insect Sf9 cells
T3 sequence (P27487 whole entry): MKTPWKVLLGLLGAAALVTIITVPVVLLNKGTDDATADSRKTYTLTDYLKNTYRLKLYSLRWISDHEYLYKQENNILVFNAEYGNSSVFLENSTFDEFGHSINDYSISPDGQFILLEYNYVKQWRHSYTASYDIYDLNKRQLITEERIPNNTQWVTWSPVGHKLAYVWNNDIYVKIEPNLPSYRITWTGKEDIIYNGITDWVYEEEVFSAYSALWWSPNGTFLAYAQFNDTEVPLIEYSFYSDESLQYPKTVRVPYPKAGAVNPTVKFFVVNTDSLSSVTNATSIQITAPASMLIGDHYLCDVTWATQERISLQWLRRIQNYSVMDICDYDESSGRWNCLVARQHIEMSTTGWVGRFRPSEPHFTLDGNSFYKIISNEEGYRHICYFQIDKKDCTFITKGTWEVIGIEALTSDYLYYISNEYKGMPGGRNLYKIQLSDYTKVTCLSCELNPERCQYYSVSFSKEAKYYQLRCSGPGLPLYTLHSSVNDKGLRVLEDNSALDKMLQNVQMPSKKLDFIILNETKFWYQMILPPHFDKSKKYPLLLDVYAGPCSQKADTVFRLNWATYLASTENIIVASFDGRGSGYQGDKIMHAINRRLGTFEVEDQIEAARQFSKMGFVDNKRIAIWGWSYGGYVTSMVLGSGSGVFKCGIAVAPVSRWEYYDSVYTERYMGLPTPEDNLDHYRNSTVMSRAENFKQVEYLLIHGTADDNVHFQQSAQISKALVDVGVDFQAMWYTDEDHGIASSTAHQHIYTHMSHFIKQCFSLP
Description: Protease counter-screening: Dipeptidyl Dipeptidase IV. Type of assay: biochemical. As to the method: as §1, §2, §3, §4, §5, §6
Test compound or vehicle was pre- incubated with 600 […]
The reaction was […]
initiated by addition of 1 µM N-CH3-SO2-D-FGR-pNA for another 120 min incubation period. […]
Factor Xa: Test compound or vehicle was pre -incubated for 15 min at 25 °C in modified 50 mM Tris-HCl buffer pH 7.6 containing 0.4 nM Factor Xa from human plasma. The reaction was initiated by addition of 0.3 mM N-a-Z-D-RGR-pNA for another 60 min incubation period. The amount of pNA form ed was measur ed at 405 nm. […]

The target in a further assay is human liver Cat B (Homo sapiens, UniProt P07858). Description: Cathepsin B inhibition assay.
The next assay has as its target T4, Cathepsin D (Homo sapiens, UniProt P07339).
T4 construct: purified from human li ver; from tissue; host or cells: human liver
Nature of the assay: Protease counter-screening: Cathepsin D. Type of assay: biochemical. The method, then:
as §1, §2, §3, §4, §5, §7, §8, §9, §10

Read-outs that look alike come from different tables or passages of the source.

T1 sequence (Q3ZCJ8 25-463): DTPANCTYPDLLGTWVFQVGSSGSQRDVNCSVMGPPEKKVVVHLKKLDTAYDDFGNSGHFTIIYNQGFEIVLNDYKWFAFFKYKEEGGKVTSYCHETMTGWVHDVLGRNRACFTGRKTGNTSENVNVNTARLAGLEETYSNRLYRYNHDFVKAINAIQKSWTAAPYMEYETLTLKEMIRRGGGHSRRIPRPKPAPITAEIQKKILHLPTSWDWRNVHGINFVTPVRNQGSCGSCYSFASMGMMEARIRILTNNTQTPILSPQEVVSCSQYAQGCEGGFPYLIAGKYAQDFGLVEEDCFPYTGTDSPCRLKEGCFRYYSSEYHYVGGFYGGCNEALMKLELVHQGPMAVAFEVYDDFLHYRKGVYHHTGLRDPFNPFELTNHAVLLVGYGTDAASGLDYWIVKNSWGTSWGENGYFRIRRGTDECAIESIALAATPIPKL
T4 sequence (P07339 65-412): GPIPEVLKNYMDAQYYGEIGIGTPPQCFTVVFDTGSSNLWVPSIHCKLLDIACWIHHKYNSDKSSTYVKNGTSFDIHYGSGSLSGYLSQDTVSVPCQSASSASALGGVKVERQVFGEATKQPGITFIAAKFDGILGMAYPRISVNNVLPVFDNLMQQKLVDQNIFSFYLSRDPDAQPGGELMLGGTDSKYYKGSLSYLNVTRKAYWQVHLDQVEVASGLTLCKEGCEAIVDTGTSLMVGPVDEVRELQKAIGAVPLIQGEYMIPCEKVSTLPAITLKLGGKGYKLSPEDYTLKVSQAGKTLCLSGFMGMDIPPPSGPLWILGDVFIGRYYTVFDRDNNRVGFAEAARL
Description for human liver Cat B: Inhibition of Cat B was measured as described with modifications.[25] […] Progress curves were followed at 30 °C by detection of fluorescence at 320/420 nm (excitation/emission).
In all cases, for reactions involving inhibitors, the amount of reaction buffer was adjusted to 60 μL, the inhibitor added as a 10 μL aliquot, and incubated for 20 min with the enzyme prior to reaction start.

In the case of `CC(C)[C@H](NC(=O)[C@H](C)NC(=O)[C@@H](NC(=O)c1ccccc1)C(C)(C)C)C(=O)C(=O)NCc1ccccc1` [Compound 38, N-{(S)-1-[(S)-1-((S)-1-Benzylaminooxalyl-2-methyl-propylcarbamoyl)-ethylcarbamoyl]-2,2-dimethyl-propyl}-benzamide], the inhibition – broadly, the change of the read-out against control, counted positive when it falls – at 10 µM in assay [1] turned out to be 0%; against Human cathepsin E, 23%; in assay [2] it was 0%; on Cathepsin D it was 2%. Also, the half-inhibitory concentration (IC50) (usually the concentration needed to halve the response being measured) on human liver Cat B (read-out: Cat B IC50, mean ± SE) worked out at 512 ± 59 nM; at human liver Cat B (read-out: Cathepsin B IC50, Table S1 counter-screening), 510 nM.
